The target in assay [1] is T1, Ubiquitin carboxyl-terminal hydrolase 25 (Homo sapiens, UniProt Q9UHP3).
T1 sequence (Q9UHP3 whole entry): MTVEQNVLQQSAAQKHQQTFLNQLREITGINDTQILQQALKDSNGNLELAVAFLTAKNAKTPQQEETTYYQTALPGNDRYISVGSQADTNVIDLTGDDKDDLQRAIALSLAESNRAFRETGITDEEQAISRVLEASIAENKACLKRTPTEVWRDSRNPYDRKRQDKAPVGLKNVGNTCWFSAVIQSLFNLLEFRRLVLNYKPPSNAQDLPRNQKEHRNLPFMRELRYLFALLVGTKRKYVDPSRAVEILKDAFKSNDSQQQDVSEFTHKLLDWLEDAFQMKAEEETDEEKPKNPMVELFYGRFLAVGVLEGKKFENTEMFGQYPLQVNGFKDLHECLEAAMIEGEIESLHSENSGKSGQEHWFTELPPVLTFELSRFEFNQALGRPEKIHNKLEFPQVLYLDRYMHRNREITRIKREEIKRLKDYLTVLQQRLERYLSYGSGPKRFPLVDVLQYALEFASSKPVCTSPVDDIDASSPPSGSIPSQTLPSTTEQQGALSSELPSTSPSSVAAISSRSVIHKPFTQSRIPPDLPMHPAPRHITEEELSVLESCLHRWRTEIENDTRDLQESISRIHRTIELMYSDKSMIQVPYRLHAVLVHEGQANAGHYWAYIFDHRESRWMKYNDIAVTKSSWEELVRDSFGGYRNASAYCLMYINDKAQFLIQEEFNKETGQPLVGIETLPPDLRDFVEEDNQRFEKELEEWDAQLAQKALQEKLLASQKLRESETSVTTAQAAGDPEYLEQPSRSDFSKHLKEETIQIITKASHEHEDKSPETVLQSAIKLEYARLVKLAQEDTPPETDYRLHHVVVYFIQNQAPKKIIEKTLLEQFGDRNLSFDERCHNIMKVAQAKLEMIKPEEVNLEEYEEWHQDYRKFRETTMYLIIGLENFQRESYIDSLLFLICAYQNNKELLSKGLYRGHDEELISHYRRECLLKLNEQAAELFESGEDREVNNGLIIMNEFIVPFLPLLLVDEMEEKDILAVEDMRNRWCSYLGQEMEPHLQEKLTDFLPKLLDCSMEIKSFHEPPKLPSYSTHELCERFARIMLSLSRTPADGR
Description: Biochemical Assay. The procedure:
USP25: The assay was performed in a final volume of 9 μL in assay buffer containing 20 mM Tris-HCl (pH 8.0, (1M Tris-HCl, pH 8.0 solution; Corning 46-031-CM)), 3 mM BME (2-Mercaptoethanol; Sigma 63689-25ML-F), 0.03% BGG (0.22 μM filtered. Sigma, G7516-25G), and 0.01% Triton X-100 (Sigma, T9284-10L). Nanoliter quantities of 10-point, 3-fold serial dilution in DMSO was pre-dispensed into 1536 assay plates (Corning, #3724BC) for a final test concentration of 25 μM to 1.3 nM, top to lowest dose, respectively. Enzyme USP25, construct USP25-His6, (Boston Biochem E-546). Concentration and incubation times were optimized for the maximal signal-to-background while maintaining initial velocity conditions at a fixed substrate concentration. The final concentration of the enzyme in the assay was 75 pM. Final substrate (Ub-Rh110 Ubiquitin-Rhodamine 110, R&D Systems # U-555) concentration was 25 nM with [Ub-Rh110]<<Km. 3 μL of 2× enzyme was added to assay plates (pre-stamped with compound) preincubated with […] for 30 minutes and then 3 μL of 2×Ub-Rh110 was added to assay plates. […] Fluorescence was read on the Envision (Excitation at 485 nm and Emission at 535 nm; Perkin Elmer) or on the PheraSTAR (Excitation at 485 nm and Emission at 535 nm; BMG Labtech).

Assay [2] deals with T2, Ubiquitin carboxyl-terminal hydrolase 28 (Homo sapiens, UniProt Q96RU2).
T2 sequence (Q96RU2 whole entry): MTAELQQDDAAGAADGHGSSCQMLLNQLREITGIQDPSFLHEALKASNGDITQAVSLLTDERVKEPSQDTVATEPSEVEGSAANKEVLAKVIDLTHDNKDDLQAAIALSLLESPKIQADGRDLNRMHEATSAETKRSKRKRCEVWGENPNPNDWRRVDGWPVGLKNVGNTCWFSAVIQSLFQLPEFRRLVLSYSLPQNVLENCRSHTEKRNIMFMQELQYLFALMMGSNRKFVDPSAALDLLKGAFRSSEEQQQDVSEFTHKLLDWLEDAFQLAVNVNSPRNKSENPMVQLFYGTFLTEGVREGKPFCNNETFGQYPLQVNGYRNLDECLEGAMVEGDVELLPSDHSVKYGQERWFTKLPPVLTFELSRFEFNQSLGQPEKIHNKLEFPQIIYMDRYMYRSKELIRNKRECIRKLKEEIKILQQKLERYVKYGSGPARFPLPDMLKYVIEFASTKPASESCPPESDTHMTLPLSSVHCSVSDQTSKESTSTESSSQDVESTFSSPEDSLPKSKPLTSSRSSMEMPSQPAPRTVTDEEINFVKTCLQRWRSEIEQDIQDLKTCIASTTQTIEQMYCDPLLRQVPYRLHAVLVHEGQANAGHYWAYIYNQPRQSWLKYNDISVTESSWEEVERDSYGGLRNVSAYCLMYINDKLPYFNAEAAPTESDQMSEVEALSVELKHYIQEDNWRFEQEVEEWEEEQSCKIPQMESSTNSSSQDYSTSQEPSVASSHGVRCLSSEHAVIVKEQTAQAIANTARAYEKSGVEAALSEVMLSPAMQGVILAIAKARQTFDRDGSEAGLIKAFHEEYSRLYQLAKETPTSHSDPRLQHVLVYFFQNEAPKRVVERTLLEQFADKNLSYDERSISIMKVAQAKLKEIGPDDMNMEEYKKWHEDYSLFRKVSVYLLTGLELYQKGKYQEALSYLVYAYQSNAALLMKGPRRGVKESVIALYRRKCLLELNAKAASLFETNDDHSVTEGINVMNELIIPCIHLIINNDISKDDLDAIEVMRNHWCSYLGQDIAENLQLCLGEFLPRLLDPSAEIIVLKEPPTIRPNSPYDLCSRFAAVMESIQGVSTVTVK
Description: Biochemical Assay. The procedure:
USP28: Each assay was performed in a final volume of 20 μL in assay buffer containing 20 mM Tris-HCl (pH 8.0, (1M Tris-HCl, pH 8.0 solution; Corning 46-031-CM)), 2 mM CaCl2) (1M Calcium Chloride solution; Sigma #21114) 2 mM BME (2-Mercaptoethanol; Sigma 63689-25ML-F), 0.01% Prionex (0.22 μM filtered, Sigma # G-0411), and 0.01% Triton X-100. Stock compound solutions were stored at −20° C. as 10 mM in DMSO. Up to 1 month prior to the assay, 2 mM test compounds were pre-dispensed into assay plates (Black, low volume; Corning #3820) and frozen at −20° C. Prestamped assay plates were allowed to come to room temperature on the day of the assay. For the screen, 100 nL of 2 mM was pre-dispensed for a final screening concentration of 10 μM (DMSO(fc)=0.5%). […] Plates were incubated stacked for 90 minutes at room temperature before fluorescence was read on the Envision (Excitation at 485 nm and Emission at 535 nm; Perkin Elmer) or on the PheraSTAR (Excitation at 485 nm and Emission at 535 nm; BMG Labtech).

Molecules are shown by their SMILES.

As to `Cc1cnc2c(N)c(C(=O)NCCc3ccc(N4C5CCC4CNC5)cc3F)sc2n1` [US10889592, Compound I-10], the half-inhibitory concentration (IC50) (in general, the concentration at which inhibition is half-maximal) in assay [1] is “in the range around 1.1 µM”; in assay [2] it was under 0.2 µM.

Turning to `Cc1cnc2c(N)c(C(=O)NCCc3c(F)cc(N4C5CCC4CNC5)cc3F)sc2n1` [US10889592, Compound I-11], the half-maximal inhibitory concentration (IC50) entry in assay [1] and in assay [2] was “in the range around 1.1 µM” in each case.
